According to patent US11226337B2, “Chemoproteomic profiling of protein electrophilic and oxidative post-translational modifications” (Zenagem, LLC, priority 2017, dated 2022):

Key:
AMD1 [1] = biological target: T1, AMD1 (Homo sapiens, UniProt P17707); conditions: literature statement; cited from earlier work
T1 construct: Full-length genes encoding three probe 1- and one probe 2-targeted proteins were amplified from a cDNA library; expressed in transfected cells; host or cells: HEK293T
T1 sequence (P17707 68-334 limits assumed): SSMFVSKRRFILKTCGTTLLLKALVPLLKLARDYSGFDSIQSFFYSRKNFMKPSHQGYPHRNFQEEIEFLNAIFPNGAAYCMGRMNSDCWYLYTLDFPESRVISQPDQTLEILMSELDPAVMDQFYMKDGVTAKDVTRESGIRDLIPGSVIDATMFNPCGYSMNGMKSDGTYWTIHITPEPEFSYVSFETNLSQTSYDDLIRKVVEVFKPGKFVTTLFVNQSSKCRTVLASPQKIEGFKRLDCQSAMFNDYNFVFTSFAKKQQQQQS
T1 sequence (P17707 1-67 limits assumed): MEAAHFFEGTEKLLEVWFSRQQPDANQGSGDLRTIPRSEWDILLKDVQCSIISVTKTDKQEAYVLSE

AMD1 [2] = biological target: T1, AMD1; assay: expression and probe 1 labelling of endogenous AMD1 after DFMO; type: cell-based; conditions: HEK293T, DFMO 5 mM 48 h, 10 μM L-methionine
Experimental: To enhance expression and labelling of endogenous AMD1, HEK293T cells were treated with difluoromethylornithine (DFMO; purchased from Santa Cruz Biotechnology) (5 mM) for 48 h in RPMI 1640 media (Fisher Scientific, A14517-01) containing 10 μM L-methionine. Cells were washed and treated with probe 1 in the absence of methionine. […] Probe 1-labelling, proteome preparation, fluorophore conjugation, gel-based analysis and western blotting were performed as described above in Examples 2 and 3. Band intensities were quantified using ImageJ software^75. […] Briefly, about 0.5 mg soluble proteomes isolated from probe 1-labelled AMD1-transfected cells grown in low versus high methionine were each diluted to 1 mL with 50 mM Na-HEPES buffer (pH 7.5) supplemented with 500 mM NaCl and 1% Triton X-100. Each proteome was incubated overnight at 4° C. by rotation with a pre-equilibrated slurry (25 μL resin (CV), anti-FLAG M2 affinity gel, Sigma). The resin was washed by resuspension and centrifugation with the same buffer supplemented with 500 mM NaCl (5×1 mL) followed by 100 mM NaCl (2×1 mL). The bound AMD1 protein was eluted in 100 μL of low salt buffer containing […] (FLAG)3 peptide [DYKDHD-(G)-DYKDHD-(I)-DYKD4K] (SEQ ID NO: 47). To prevent contamination from the excess (FLAG)3 peptide in the elution, the protein was purified by gel. […]

Q: Which results are given for difluoromethylornithine [DFMO]?
A: effect on expression of AMD1 (AMD1 [1]): increase the expression of AMD1; change in endogenous active AMD1 detected by probe 1 (AMD1 [2]): DMFO-induced changes in the endogenous concentration of active AMD1
